Measurements as given in patent US20260174769A1, “MACROCYCLIC COMPOUNDS AND METHODS OF USE” (AMGEN INC., priority 2022, published 2026).
Like-named read-outs stand apart in the source and are kept apart here.

Assays:
[1] = 16-membered ring
[2] = test system: Phosphorylation of ERK1/2 in AsPC-1 cells; experiment: Phospho-ERK1/2 MSD Assay; type: cell-based, human; conditions: read-out: 2 h p-ERK (AsPC-1 cells), IC50
[3] = test system: phospho-ERK1/2 in PANC 04.03 tumors; experiment: Tumor Pharmacodynamic Assay (p-ERK inhibition in PANC 04.03 tumor-bearing mice); type: in vivo; conditions: PANC 04.03 tumor-bearing female athymic nude mice; single oral dose 100 mg/kg; tumors harvested 2 hours later; p-ERK1/2 normalized to total ERK1/2, relative to vehicle group
Protocol: Tumor Pharmacodynamic Assays
Inhibitor pharmacodynamic effects were assessed in PANC 04.03 tumor-bearing mice. PANC 04.03 tumor cells (5.0E+06 cells) were injected subcutaneously into the flank of female athymic nude mice in a mixture with Matrigel (BD Bioscience). Mice received a single oral dose of either vehicle or inhibitors (100 mg/kg) when the average tumor size reached ˜300-600 mm^3 (n=3/group) and harvested 2 hours later. Tumor samples were collected, snap frozen, and processed for analysis by pulverizing with a cryoPREP® Dry Impactor (Covaris). Pulverized samples were resuspended in RIPA lysis buffer containing protease and phosphatase inhibitors and homogenized. Cleared lysates were analyzed using phospho-ERK1/2 and total ERK1/2 whole cell lysate kits (Meso Scale Discovery) according to the manufacturer's protocol. Phospho-ERK1/2 signal was normalized to total ERK1/2 signal for a given sample, and percent inhibition of p-ERK was calculated relative to the vehicle group.

AsPC-1 cells = experiment: AsPC-1 CTG Assay (CellTiter-Glo cell viability, 72 h); type: cell-based, human; conditions: read-out: G12D/C/V Cell Proliferation CTG (72 h) AsPC-1
Protocol: (§1) AsPC-1 and SW620 CTG Assay Protocols
(§2) Serially-diluted compound or DMSO was added to the cells, and plates were incubated at 37° C., 5% CO2 for 72 h. Cell viability was measured using a CellTiter-Glo® Luminescent Cell Viability Assay kit (Promega) according to the manufacturer's protocol. The luminescence signal of treated samples was normalized to DMSO control, and data were analyzed using a 4-parameter logistic model to calculate IC50 values.

MIA PaCa-2 cells = experiment: MIA PaCa-2 CTG Assay (CellTiter-Glo cell viability, 72 h); type: cell-based, human; conditions: second value of cell, read-out: G12D/C/V Cell Proliferation CTG (72 h) Mia PaCa-2
Protocol: MIA PaCa-2 CTG Assay Protocol
as §2

SW620 cells = experiment: SW620 CTG Assay (CellTiter-Glo cell viability, 72 h); type: cell-based; conditions: Homo sapiens, SW-620, third value of cell, read-out: G12D/C/V Cell Proliferation CTG (72 h) SW620
Protocol: as §1
as §2, with “AsPC-1 (human pancreatic adenocarcinoma; ATCC CRL-1682) or SW620 (human colon adenocarcinoma; ATCC CCL-227) cells were cultured in RPMI 1640 medium containing 10% fetal bovine serum and 1× penicillin/streptomycin/L-glutamine. Cells were seeded in 384-well plates at a density of 3.33E+04 cells/mL and incubated at 37° C., 5% CO2, overnight. Serially-diluted” for “Serially-diluted”

Cc1cc2c(cnn2C2CCCCO2)c2c1CCCCC(=O)N[C@@H]1CCCN(C1)c1nc(OC[C@@]34CCCN3C[C@H](F)C4)nc3c(F)c-2ncc13 (stereo partly shown)
ring closure, isolated yield ([1]; from Cc1cc2c(cnn2C2CCCCO2)c(-c2ncc3c(N4CCC[C@@H](N)C4)nc(OC[C@@]45CCCN4C[C@H](F)C5)nc3c2F)c1CCCCC(=O)O, amide bond, HATU/DIEA, DMA, 4.7 mM, 25.0 °C, 1.5 h): 22%

Cc1cc2c(cnn2C2CCCCO2)c2c1CCCn1ncc(n1)C1CCCN(C1)c1nc(OC[C@@]34CCCN3C[C@H](F)C4)nc3c(F)c-2ncc13 (stereo partly shown)
ring closure, isolated yield ([1]; from Cc1cc2c(cnn2C2CCCCO2)c(-c2ncc3c(N4CCCC(c5cn[nH]n5)C4)nc(OC[C@@]45CCCN4C[C@H](F)C5)nc3c2F)c1CCCCl, other bond, K2CO3/TBAI, MeCN, 6.9 mM, 85.0 °C, 3.0 h): 31%

O=C1COCCCc2c(Cl)cc3[nH]ncc3c2-c2ncc3c(nc(OC[C@@]45CCCN4C[C@H](F)C5)nc3c2F)N2CC[C@H]3CCN1[C@H]3C2 [Example 168]
IC50 [2]: 1.3 nM | p-ERK (% inhibition) 2 hr. [3]: 65% | IC50 (AsPC-1 cells): 10 nM

O=C1OCCc2c(Cl)cc3[nH]ncc3c2-c2ncc3c(nc(OC[C@@]45CCCN4C[C@H](F)C5)nc3c2F)N2CCO[C@]3(C2)C[C@H](C3)O1 [Example 248, (1R.3R)-10-chloro-32-fluoro-24-(((2R,7aS)-2-fluorotetrahydro-1H-pyrrolo[1,2-α]pyrrol-7a(SH)-yl)methoxy)-4,6,30-trioxa-1.3,14,19,23,25,27-hexaazaheptacyclo[25.3.1.1~1,3~.1~18,22~.0~9.17~.0~12,16~.0~21,26~]tritriaconta-9,11,14,16,18(32),19,21,23,25-nonaen-5-one]
IC50 ([2]; AsPC-1 cells, 2 h compound treatment): 7.8 nM | p-ERK (% inhibition) 2 hr. [3]: 85% | IC50 (MIA PaCa-2 cells): 7 nM | IC50 (AsPC-1 cells; AsPC-1 cells, 72 h, first value of cell): 13 nM

Fc1c2ncc3c(nc(OC[C@@]45CCCN4C[C@H](F)C5)nc13)N1CCC[C@]3(C1)C[C@H](C3)OCCCCc1c(Cl)cc3[nH]ncc3c1-2 [Example 260, (1S,3R)-10-Chloro-32-fluoro-24-(((2R,7aS)-2-fluorotetrahydro-1H-pyrrolo[1,2-a]pyrrol-7a(5H)-yl)methoxy)-4-oxa-13,14,19,23,25,27-hexaazaheptacyclo[25.3.1.1˜1,3˜.1˜18,22˜.0˜9,17˜.0˜12,16˜.0˜21,26˜]tritriaconta-9,11,14,16,18(32),19,21,23,25-nonaene bis(2,2,2-trifluoroacetate)]
IC50 ([2]; Homo sapiens, ASPC1, 2 h, AsPC-1 cells, 2 h compound treatment): 3.2 nM | IC50 (SW620 cells): 8 nM | IC50 (MIA PaCa-2 cells; Homo sapiens): 26 nM | IC50 (AsPC-1 cells; Homo sapiens, ASPC1, 72 h, AsPC-1 cells, 72 h, first value of cell): 40 nM
